# Reference: patent publication US5294611A, “Angiotensin II receptor blocking 2,3,6 substituted quinazolinones” (American Cyanamid Company, priority 1993, dated 1994)
# Where two headings read alike, the source gives them in different places.
# System: Angiotensin II (AII) vasopressor response
# Assay: AII Challenge: antagonism of angiotensin II vasopressor response in conscious spontaneously hypertensive rats
# Type: in vivo, rat (male okamoto-Aoki SHR)
# Conditions: for inhibition in vivo at 3 mg/kg / inhibition in vivo at 1 mg/kg: Rattus norvegicus, iv; for inhibition in vivo at 3 mg/kg / Average Change / inhibition in vivo at 1 mg/kg: SHR n=2; for inhibition in vivo at 3 mg/kg: read-out: Inhibition; for Change: single SHR
# Description: Conscious Male okamoto-Aoki SHR, 16-20 weeks old, weighing approximately 330 g are purchased from Charles River Labs (Wilmington, Mass.). Conscious rats are restrained in a supine position with elastic tape. The area at the base of the tail is locally anesthetized by subcutaneous infiltration with 2% procaine. […] The cannula is secured, heparinized (1,000 I.U./ml), sealed and the wound is closed. The animals are placed in plastic restraining cages in an upright position. The cannula is attached to a Statham P23Db pressure transducer, and pulsatile blood pressure is recorded to 10-15 minutes with a Gould Brush recorder. […] Angiotensin II (human sequence, Sigma Chem. Co., St. Louis, Mo.) of 0.05 and 0.1 ug/kg i.v. is injected into all rats (predosing response). Then a test compound, vehicle or a known angiotensin II antagonist is administered i.v., i.p. or orally to each set of rats. […] The vasopressor response of angiotensin II is measured for the increase in systolic blood pressure in mmHg.
# [1] = 1 mg/kg I.V., AII 0.05 mcg/kg IV, 60 min post dose
# [2] = 1 mg/kg I.V., AII 0.05 mcg/kg IV, 300 min post dose
smiles,measurement,setting,value
"CCCCc1nc2ccc(C3CC4CCCCN3O4)cc2c(=O)n1Cc1ccc(-c2ccccc2-c2nnn[nH]2)cc1 (stereo not drawn) [Example 18, cis-2-Butyl-6-(9-oxa-1-azabicyclo[4.2.1]non-8-yl)-3-[[2'-(1H-tetrazol-5-yl)[1,1'-biphenyl]-4-yl-methyl-4(3H)-quinazolinone]",inhibition in vivo at 3 mg/kg,"0.5 h, 3 mg/kg I.V., AII 0.05 mcg/kg IV, 30 min post dose",68%
same,inhibition in vivo at 3 mg/kg,"0.5 h, 3 mg/kg I.V., AII 0.1 mcg/kg IV, 30 min post dose",75%
same,inhibition in vivo at 3 mg/kg,"1 h, 3 mg/kg I.V., AII 0.05 mcg/kg IV, 60 min post dose",53%
same,inhibition in vivo at 3 mg/kg,"1 h, 3 mg/kg I.V., AII 0.1 mcg/kg IV, 60 min post dose",60%
same,inhibition in vivo at 3 mg/kg,"2 h, 3 mg/kg I.V., AII 0.05 mcg/kg IV, 120 min post dose",5%
same,inhibition in vivo at 3 mg/kg,"2 h, 3 mg/kg I.V., AII 0.1 mcg/kg IV, 120 min post dose",0%
same,inhibition in vivo at 3 mg/kg,"3 h, 3 mg/kg I.V., AII 0.05 mcg/kg IV, 180 min post dose",58%
same,inhibition in vivo at 3 mg/kg,"3 h, 3 mg/kg I.V., AII 0.1 mcg/kg IV, 180 min post dose",50%
same,inhibition in vivo at 3 mg/kg,"4 h, 3 mg/kg I.V., AII 0.05 mcg/kg IV, 240 min post dose",63%
same,inhibition in vivo at 3 mg/kg,"4 h, 3 mg/kg I.V., AII 0.1 mcg/kg IV, 240 min post dose",10%
same,inhibition in vivo at 3 mg/kg,"5 h, 3 mg/kg I.V., AII 0.05 mcg/kg IV, 300 min post dose",11%
same,inhibition in vivo at 3 mg/kg,"5 h, 3 mg/kg I.V., AII 0.1 mcg/kg IV, 300 min post dose",45%
same,inhibition in vivo at 3 mg/kg,"[…], 3 mg/kg I.V., AII 0.05 mcg/kg IV, 90 min post dose",47%
same,inhibition in vivo at 3 mg/kg,"[…], 3 mg/kg I.V., AII 0.1 mcg/kg IV, 90 min post dose",45%
same,Average Change,"3 mg/kg I.V., AII 0.05 mcg/kg IV, 30 min post dose",15 mmHg
same,Average Change,"3 mg/kg I.V., AII 0.05 mcg/kg IV, 60 min post dose",22.5 mmHg
same,Average Change,"3 mg/kg I.V., AII 0.05 mcg/kg IV, 90 min post dose",25 mmHg
same,Average Change,"3 mg/kg I.V., AII 0.05 mcg/kg IV, 120 min post dose",45 mmHg
same,Average Change,"3 mg/kg I.V., AII 0.05 mcg/kg IV, 180 min post dose",20 mmHg
same,Average Change,"3 mg/kg I.V., AII 0.05 mcg/kg IV, 240 min post dose",17.5 mmHg
same,Average Change,"3 mg/kg I.V., AII 0.05 mcg/kg IV, 300 min post dose",42.5 mmHg
same,Average Change,"3 mg/kg I.V., AII 0.1 mcg/kg IV, 30 min post dose",12.5 mmHg
same,Average Change,"3 mg/kg I.V., AII 0.1 mcg/kg IV, 60 min post dose",20 mmHg
same,Average Change,"3 mg/kg I.V., AII 0.1 mcg/kg IV, 90 min post dose",27.5 mmHg
same,Average Change,"3 mg/kg I.V., AII 0.1 mcg/kg IV, 120 min post dose",50 mmHg
same,Average Change,"3 mg/kg I.V., AII 0.1 mcg/kg IV, 180 min post dose",25 mmHg
same,Average Change,"3 mg/kg I.V., AII 0.1 mcg/kg IV, 240 min post dose",45 mmHg
same,Average Change,"3 mg/kg I.V., AII 0.1 mcg/kg IV, 300 min post dose",27.5 mmHg
CCCCc1nc2ccc(C3C4CCCN3OC4)cc2c(=O)n1Cc1ccc(-c2ccccc2-c2nnn[nH]2)cc1 (stereo not shown) [Example 21],inhibition in vivo at 1 mg/kg,"0.5 h, 1 mg/kg I.V., AII 0.05 mcg/kg IV, 30 min post dose",53%
same,inhibition in vivo at 1 mg/kg,"0.5 h, 1 mg/kg I.V., AII 0.1 mcg/kg IV, 30 min post dose",53%
same,inhibition in vivo at 1 mg/kg,"1 h, 1 mg/kg I.V., AII 0.05 mcg/kg IV, 60 min post dose",68%
same,inhibition in vivo at 1 mg/kg,"1 h, 1 mg/kg I.V., AII 0.1 mcg/kg IV, 60 min post dose",56%
same,inhibition in vivo at 1 mg/kg,"2 h, 1 mg/kg I.V., AII 0.05 mcg/kg IV, 120 min post dose",63%
same,inhibition in vivo at 1 mg/kg,"2 h, 1 mg/kg I.V., AII 0.1 mcg/kg IV, 120 min post dose",61%
same,inhibition in vivo at 1 mg/kg,"3 h, 1 mg/kg I.V., AII 0.05 mcg/kg IV, 180 min post dose",63%
same,inhibition in vivo at 1 mg/kg,"3 h, 1 mg/kg I.V., AII 0.1 mcg/kg IV, 180 min post dose",47%
same,inhibition in vivo at 1 mg/kg,"4 h, 1 mg/kg I.V., AII 0.05 mcg/kg IV, 240 min post dose",42%
same,inhibition in vivo at 1 mg/kg,"4 h, 1 mg/kg I.V., AII 0.1 mcg/kg IV, 240 min post dose",61%
same,inhibition in vivo at 1 mg/kg,"5 h, 1 mg/kg I.V., AII 0.05 mcg/kg IV, 300 min post dose",37%
same,inhibition in vivo at 1 mg/kg,"5 h, 1 mg/kg I.V., AII 0.1 mcg/kg IV, 300 min post dose",34%
same,inhibition in vivo at 1 mg/kg,"[…], 1 mg/kg I.V., AII 0.05 mcg/kg IV, 90 min post dose",63%
same,inhibition in vivo at 1 mg/kg,"[…], 1 mg/kg I.V., AII 0.1 mcg/kg IV, 90 min post dose",52%
same,Average Change,"1 mg/kg I.V., AII 0.05 mcg/kg IV, 30 min post dose",22.5 mmHg
same,Average Change,[1],15 mmHg
same,Average Change,"1 mg/kg I.V., AII 0.05 mcg/kg IV, 90 min post dose",17.5 mmHg
same,Average Change,"1 mg/kg I.V., AII 0.05 mcg/kg IV, 120 min post dose",17.5 mmHg
same,Average Change,"1 mg/kg I.V., AII 0.05 mcg/kg IV, 180 min post dose",17.5 mmHg
same,Average Change,"1 mg/kg I.V., AII 0.05 mcg/kg IV, 240 min post dose",27.5 mmHg
same,Average Change,[2],30 mmHg
same,Average Change,"1 mg/kg I.V., AII 0.1 mcg/kg IV, 30 min post dose",27 mmHg
same,Average Change,"1 mg/kg I.V., AII 0.1 mcg/kg IV, 60 min post dose",25 mmHg
same,Average Change,"1 mg/kg I.V., AII 0.1 mcg/kg IV, 90 min post dose",27.5 mmHg
same,Average Change,"1 mg/kg I.V., AII 0.1 mcg/kg IV, 120 min post dose",22.5 mmHg
same,Average Change,"1 mg/kg I.V., AII 0.1 mcg/kg IV, 180 min post dose",30 mmHg
same,Average Change,"1 mg/kg I.V., AII 0.1 mcg/kg IV, 240 min post dose",22.5 mmHg
same,Average Change,"1 mg/kg I.V., AII 0.1 mcg/kg IV, 300 min post dose",37.5 mmHg
same,Change,[1],15 mmHg
same,Change,[2],30 mmHg
